Entries after “also recorded” stand apart in the source; their conditions may differ. Where only a bound is given, the exact number is not on record here.

The test system of data set [1] is TNFα release in d-U937 cells. The data set is described as follows: LPS-induced TNFα release in d-U937 cells. Type of data set: cell-based, human. The note with it: Homo sapiens, dU937, relative to 10 μg/mL BIRB796, read-out: LPS/TNFα REC50 d-U937. The method in brief:
(§1)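 PMA-differentiated (100 ng/ml, 48–72 hr) U937 macrophage-type cells pre-incubated 2 hr with compound, then stimulated 4 hr with 0.1 μg/mL E. coli O111:B4 LPS; supernatant TNFα and IL-8 measured by sandwich ELISA. TNFα inhibition expressed relative to 10 μg/mL BIRB796, giving REC50; IL-8 inhibition versus vehicle, giving IC50.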

In data set [2] the test system is ICAM-1 induction in BEAS2B cells. The data set is described as follows: Poly I:C-induced ICAM-1 induction in BEAS2B cells. The note with it: Homo sapiens, BEAS-2B, read-out: PolyIC/ICAM1 IC50 BEAS2B. Type of data set: cell-based, human. In a few lines: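 Human bronchial epithelial BEAS2B cells were pre-incubated with compound for 2 hr, then transfected with 1 μg/mL poly I:C. After 18 hr, surface ICAM-1 was measured by cell-based ELISA (OD450-655) and normalized to crystal violet cell counts (OD595). IC50 came from inhibition versus vehicle across the concentration-response curve.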

Data set [3] deals with T1, p38 MAPKα isoform (MAPK14) (Homo sapiens, UniProt Q16539).
T1 construct: purchased Invitrogen
The data set is described as follows: Enzyme inhibition assay (FRET, Z-LYTE), p38 MAPKα via MAPKAP-K2 activation. Type of data set: biochemical. The note with it: read-out: Enzyme Inhibition IC50 p38α. In a few lines: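 Recombinant p38 MAPKα was preincubated with compound for 2 h at RT. Its activity was measured indirectly through activation/phosphorylation of downstream MAPKAP-K2, with a Z-LYTE FRET peptide read-out (coumarin/fluorescein ratio) after a 1 h development step. IC50 came from concentration-response curves of percent inhibition versus an uninhibited control.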

The next data set addresses T2, p38 MAPKγ (MAPK12) (Homo sapiens, UniProt P53778).
T2 construct: purchased Invitrogen
T2 sequence (P53778 1-367): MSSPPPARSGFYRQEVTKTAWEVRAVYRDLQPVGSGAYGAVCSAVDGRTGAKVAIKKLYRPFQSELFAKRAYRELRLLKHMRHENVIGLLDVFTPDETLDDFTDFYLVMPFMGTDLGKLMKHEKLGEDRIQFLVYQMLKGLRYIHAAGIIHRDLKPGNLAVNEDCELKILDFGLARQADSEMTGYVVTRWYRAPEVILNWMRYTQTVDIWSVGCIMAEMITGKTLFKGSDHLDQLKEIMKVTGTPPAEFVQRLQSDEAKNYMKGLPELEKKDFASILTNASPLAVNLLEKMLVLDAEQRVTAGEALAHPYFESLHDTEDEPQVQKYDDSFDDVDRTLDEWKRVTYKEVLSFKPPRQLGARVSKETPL
The data set is described as follows: Enzyme inhibition assay (FRET, Z-LYTE), p38 MAPKγ. In kind it is biochemical. The note with it: read-out: Enzyme Inhibition IC50 p38γ. In a few lines:
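Recombinant phosphorylated p38 MAPKγ preincubated 2 h at RT with compound in HEPES buffer, then 2 μM FRET peptide and 100 μM ATP added for 1 h; protease development 1 h. Coumarin/fluorescein emission ratio gave phosphorylation; IC50 from concentration-response versus uninhibited control.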

Data set [4] concerns IL-8 release in d-U937 cells. The data set is described as follows: LPS-induced IL-8 release in d-U937 cells. Type of data set: cell-based, human. The settings on record: Homo sapiens, dU937. The method in brief:
as §1

Data set [5] has as its system Differentiated U937 cells. The data set is described as follows: Cell viability MTT assay. In kind it is cell-based, human. The settings on record: negative = apparent increase in viability; for MTT Assay (Viability) 4 h d-U937, percentage loss of cell viability: 4 hr in 5% FCS; for MTT Assay (Viability) 24 h d-U937, percentage loss of cell viability: 24 h in 10% FCS. In a few lines:
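Differentiated U937 cells pre-incubated with compound either 4 hr in 5% FCS or 24 h in 10% FCS, then 1 hr MTT. Formazan dissolved in DMSO, absorbance at 550 nm. Percentage viability loss relative to 0.5% DMSO vehicle; apparent increases appear as negative percentages.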

The test system of data set [6] is TNFα release in THP-1 cells. The data set is described as follows: LPS-induced TNFα release in THP-1 cells. Type of data set: cell-based, human. The note with it: Homo sapiens. In a few lines: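 Human monocytic THP-1 cells stimulated with 3 μg/mL E. coli LPS for 4 hr; supernatant TNFα measured by sandwich ELISA. Inhibition at each concentration versus vehicle control, IC50 from concentration-response curve.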

The next data set deals with Balb/c mice. The data set is described as follows: LPS-induced neutrophil accumulation in mice. In kind it is in vivo. The note with it: for % inhibition of Influx / Neutrophil numbers in BAL 8 h pre-dose: 0.2 mg/mL, 8 h pre-dose; for inhibitory effects versus neutrophil influx into the BALF: dosed 8 hr before the inflammatory stimulus. The procedure: LPS-Induced Neutrophil Accumulation in Mice
Non-fasted Balb/c mice were dosed by the intra tracheal route with either vehicle, or the test substance at the indicated times (within the range 2-8 hr) before stimulation of the inflammatory response by application of an LPS challenge. At T=0, mice were placed into an exposure chamber and exposed to LPS. After a further 8 hr the animals were anesthetized, their tracheas cannulated and BALF extracted by infusing and then withdrawing from their lungs 1.0 mL of PBS via the tracheal catheter. Total and differential white cell counts in the BALF samples were measured using a Neubaur haemocytometer. Cytospin smears of the BALF samples were prepared by centrifugation at 200 rpm for 5 min at RT and stained using a DiffQuik stain system (Dade Behring). Cells were counted using oil immersion microscopy.

In a further data set the test system is A/J mice. The data set is described as follows: Cigarette smoke model. Type of data set: in vivo. The settings on record: 1.75 μg/mouse (35 μL, bid, i.n.), cigarette smoke model. The procedure:
A/J mice (males, 5 weeks old) were exposed to cigarette smoke (4% cigarette smoke, diluted with air) for 30 min/day for 11 days using a Tobacco Smoke Inhalation Experiment System for small animals (Model SIS-CS; Sibata Scientific Technology, Tokyo, Japan). Test substances were administered intra-nasally (35 μL of solution in 50% DMSO/PBS) twice daily for 3 days after the final cigarette smoke exposure. At 12 hr after the last dosing, each of the animals was anesthetized, the trachea cannulated and bronchoalveolar lavage fluid (BALF) was collected. The numbers of alveolar macrophages and neutrophils were determined by FACS analysis (EPICS® ALTRA II, Beckman Coulter, Inc., Fullerton, Calif., USA) using anti-mouse MOMA2 antibody (macrophage) or anti-mouse 7/4 antibody (neutrophil).
The data for cell numbers are shown as the mean±SEM.

T1 sequence (Q16539 whole entry, canonical isoform): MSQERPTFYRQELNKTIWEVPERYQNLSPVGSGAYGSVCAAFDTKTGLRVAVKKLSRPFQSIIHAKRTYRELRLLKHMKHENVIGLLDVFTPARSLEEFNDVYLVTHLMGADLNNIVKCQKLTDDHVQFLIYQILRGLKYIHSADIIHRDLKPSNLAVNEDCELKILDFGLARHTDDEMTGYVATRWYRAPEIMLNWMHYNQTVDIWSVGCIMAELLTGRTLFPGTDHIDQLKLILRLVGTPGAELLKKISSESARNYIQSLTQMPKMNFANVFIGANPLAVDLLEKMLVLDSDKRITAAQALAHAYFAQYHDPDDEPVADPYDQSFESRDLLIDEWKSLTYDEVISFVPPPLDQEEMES

For the compound `CC(C)(C)c1cc(NC(=O)Nc2ccc(Oc3ccnc(NC(=O)N4CCCC4)c3)c(Cl)c2Cl)n(-c2ccc(O)cc2)n1` [Example 75, N-(4-(4-(3-(3-tert-butyl-1-(4-hydroxyphenyl)-1H-pyrazol-5-yl)ureido)-2,3-dichlorophenoxy)pyridin-2-yl)pyrrolidine-1-carboxamide], the EC50 in data set [1] came to 1.3 nM. Moreover, the IC50 in data set [2] is 0.3 nM; in data set [3] it was 147 nM; at p38 MAPKγ (MAPK12) it was 181 nM; in data set [4] it was 1.7 nM; in [6], 0.4 nM. The “MTT Assay (Viability) 4 h d-U937, percentage loss of cell viability” value in [5] is listed as −33.7%. In addition, the “MTT Assay (Viability) 24 h d-U937, percentage loss of cell viability” value in data set [5] worked out at 6.6%. For the same compound, the “% inhibition of Influx” value in the data set on Balb/c mice (Table 6) is reported as 23%. Moreover, in the data set on Balb/c mice (Table 6), the “Neutrophil numbers in BAL 8 h pre-dose” value is on record as 10.87 ± 2.13 × 10^5/mL. Further, in the data set with Balb/c mice, the “inhibitory effects versus neutrophil influx into the BALF” value is “inhibitory effects; also recorded: particularly marked”.

Turning to `CN(C)[C@H]1CCN(C(=O)Nc2cc(Oc3ccc(NC(=O)Nc4cc(C(C)(C)C)nn4-c4ccc(O)cc4)c(Cl)c3Cl)ccn2)C1` [Example 80, (S)-N-(4-(4-(3-(3-tert-butyl-1-(4-hydroxyphenyl)-1H-pyrazol-5-yl)ureido)-2,3-dichlorophenoxy)pyridin-2-yl)-3-(dimethylamino) pyrrolidine-1-carboxamide], the EC50 in data set [1] is 0.8 nM. Further, the IC50 in data set [2] amounted to 2.3 nM; in [3] it was 12.3 nM; on p38 MAPKγ (MAPK12), 59.3 nM; in data set [4] it was 3.6 nM; in data set [6], 0.6 nM. In addition, in data set [5], the “MTT Assay (Viability) 4 h d-U937, percentage loss of cell viability” value is given as −3.0%. The “MTT Assay (Viability) 24 h d-U937, percentage loss of cell viability” value in data set [5] was 15.7%. Further, the “% inhibition of Influx” value in the data set with Balb/c mice (Table 5) stood at 12%. Also, in the data set with Balb/c mice (Table 5), the “Neutrophil numbers in BAL 8 h pre-dose” value is reported as 15.22 ± 2.34 × 10^5/mL. The “inhibitory effects versus neutrophil influx into the BALF” value in the data set with Balb/c mice is reported as “inhibitory effects”.

Regarding `COCC(=O)Nc1cc(Oc2ccc(NC(=O)Nc3cc(C(C)(C)C)nn3-c3ccc(OC)cc3)c(Cl)c2Cl)ncn1` [Example 91, N-(6-(4-(3-(3-tert-butyl-1-(4-methoxyphenyl)-1H-pyrazol-5-yl)ureido)-2,3-dichlorophenoxy)pyrimidin-4-yl)-2-methoxyacetamide], in data set [1], the EC50 was determined as 1.2 nM. For the same compound, the IC50 in data set [2] turned out to be 2.9 nM; in [3], 58.3 nM; at p38 MAPKγ (MAPK12), 162 nM; in data set [4], 5.9 nM; in data set [6], 1.6 nM. The “MTT Assay (Viability) 4 h d-U937, percentage loss of cell viability” value in data set [5] is listed as −47.2%. Also, the “MTT Assay (Viability) 24 h d-U937, percentage loss of cell viability” value in data set [5] is listed as 6.9%. Moreover, in the data set with Balb/c mice (Table 5), the “% inhibition of Influx” value was determined as 33%. Besides, the “Neutrophil numbers in BAL 8 h pre-dose” value in the data set with Balb/c mice (Table 5) is listed as 11.67 ± 2.07 × 10^5/mL. The “inhibitory effects versus neutrophil influx into the BALF” value in the data set with Balb/c mice is given as “inhibitory effects; also recorded: particularly marked”.

Consider `CCC(=O)O[C@]1(C(=O)SCF)[C@H](C)C[C@H]2[C@@H]3C[C@H](F)C4=CC(=O)C=C[C@]4(C)[C@@]3(F)[C@@H](O)C[C@@]21C` [fluticasone propionate, reference compound], for which the “neutrophil or macrophage accumulation into airways” value in the data set with A/J mice was “did not inhibit”. Further, the “inhibition of LPS-induced neutrophil accumulation” value with Balb/c mice (1.75 μg/mouse) was greater than 80%.

For the origin of these results see patent US10000471B2, “Pyrazole P38 map kinase inhibitors” (Respivert Limited, priority 2010, dated 2018).
